GI50 and EC50 data for 10 molecules are collected here from ChEMBL document CHEMBL1155658, “Isolation and structures of schleicherastatins 1-7 and schleicheols 1 and 2 from the teak forest medicinal tree Schleichera oleosa” (2000).

Molecules are shown by their SMILES. In brackets after ≈: the same amount, converted by molar mass.

What all share (type): functional
One assay has as its system P388. The assay can be described thus: Growth inhibition of mouse P388 cells.
A short description of assay [1]: Growth inhibition of human prostate cancer cells. The settings on record: Cancer cell lines.
The next assay deals with KM-20L2. The assay can be described thus: Growth inhibition of human KM20L2 cells.
Another assay has as its system NCI-H460. The experiment in a line: Growth inhibition of human NCI-H460 cells.
The next assay concerns BXPC-3. The assay can be described thus: Growth inhibition of human BXPC3 cells.
Another assay has as its system OVCAR-3. The experiment in a line: Growth inhibition of human OVCAR-3 cells.
The subject of a further assay is SF-295. The experiment in a line: Growth inhibition of human SF295 cells.

The term GI50 denotes the concentration at which growth is held to half of that of the control. Read a low GI50 as more potent growth inhibition. For the molecule `CO[C@H]1C=C2C[C@@H](O)CC[C@]2(C)[C@H]2CC[C@]3(C)C([C@H](C)[C@H](O)C[C@H](C)C(C)C)CC[C@H]3[C@H]12` (some centres not stated) [SCHLEICHERASTATIN 4], the GI50 in the assay on P388 was 1.2 µg/mL (≈ 2.69 µM).
As for `CO[C@H]1C=C2C[C@@H](O)CC[C@]2(C)[C@H]2CC[C@]3(C)C([C@H](C)[C@H](O)C[C@@H](C)C(C)C)CC[C@H]3[C@H]12` (some centres not stated) [SCHLEICHERASTATIN 3], in the assay with P388, the GI50 was found to be 1.2 µg/mL (≈ 2.69 µM).
On the same count and under the same terms, to `CC[C@H](C[C@@H](O)[C@@H](C)[C@H]1CC[C@H]2[C@@H]3[C@H](OC)C=C4C[C@@H](O)CC[C@]4(C)[C@H]3CC[C@]12C)C(C)C` [SCHLEICHERASTATIN 2] belongs 0.72 µg/mL (≈ 1.56 µM).
Consider `CC[C@H](CC[C@@H](C)C1CC[C@H]2[C@@H]3[C@@H](OC)C=C4C[C@@H](O)CC[C@]4(C)[C@H]3CC[C@]12C)C(C)C` (some centres not stated) [SCHLEICHEOL 1], for which the GI50 in assay [1] was 1.8 µg/mL (≈ 4.05 µM); in the assay on KM-20L2, 2.5 µg/mL (≈ 5.62 µM); in the assay with NCI-H460, 1.8 µg/mL (≈ 4.05 µM); in the assay with BXPC-3, 3.3 µg/mL (≈ 7.42 µM); in the assay with P388 it was 14 µg/mL (≈ 31.5 µM); in the assay on OVCAR-3 it was 2.1 µg/mL (≈ 4.72 µM). For the same molecule, the GI50 in the assay with SF-295 was determined as 3.2 µg/mL (≈ 7.2 µM).
In the assay with P388, `CC[C@H](C[C@@H](O)[C@@H](C)[C@H]1CC[C@H]2[C@@H]3[C@@H](OC)C=C4C[C@@H](O)CC[C@]4(C)[C@H]3CC[C@]12C)C(C)C` [SCHLEICHERASTATIN 1] returned a concentration for 50% growth inhibition (GI50) of 0.19 µg/mL (≈ 0.412 µM).
Still for that read-out and setting: the same measure for `CC[C@H](C[C@@H](O)[C@@H](C)C1CC[C@H]2[C@@H]3C(=O)C=C4C[C@@H](O)CC[C@]4(C)[C@H]3CC[C@]12C)C(C)C` (some centres not stated) [SCHLEICHERASTATIN 5]: 0.34 µg/mL (≈ 0.765 µM); for `CC(C)[C@H](C)C[C@@H](O)[C@@H](C)C1CC[C@H]2[C@@H]3C(=O)C=C4C[C@@H](O)CC[C@]4(C)[C@H]3CC[C@]12C` (some centres not stated) [SCHLEICHERASTATIN 6]: 0.78 µg/mL (≈ 1.81 µM).
In the case of `CC[C@H](CC[C@@H](C)C1CC[C@H]2C3[C@H](OC)C=C4C[C@@H](O)CC[C@]4(C)[C@H]3CC[C@]12C)C(C)C` (some centres not stated) [SCHLEICHEOL 2], the concentration for 50% growth inhibition (GI50) in assay [1] was 1.6 µg/mL (≈ 3.6 µM); in the assay with KM-20L2, 1.2 µg/mL (≈ 2.7 µM); in the assay with NCI-H460, 2.2 µg/mL (≈ 4.95 µM); with BXPC-3 it was 1.4 µg/mL (≈ 3.15 µM); in the assay with P388 it was 15 µg/mL (≈ 33.7 µM); in the assay with OVCAR-3, 2.5 µg/mL (≈ 5.62 µM). In addition, in the assay on SF-295, the concentration for 50% growth inhibition (GI50) was 1.9 µg/mL (≈ 4.27 µM).
In the case of `COC(=O)c1ccc(O)c(O)c1` [METHYL PROTOCATECHUATE], in the assay on P388 (read-out: ED50 (the source's name)), the EC50 stood at 1.4 µg/mL (≈ 8.33 µM).
In the assay on P388, `CC(C)[C@@H](C)C[C@@H](O)[C@@H](C)C1CC[C@H]2[C@@H]3C(=O)C=C4C[C@@H](O)CC[C@]4(C)[C@H]3CC[C@]12C` (some centres not stated) [SCHLEICHERASTATIN 7] registered a GI50 of 0.78 µg/mL (≈ 1.81 µM).
